Data as given in ChEMBL document CHEMBL5390286, “Discovery of Ingenane Diterpenoids from Euphorbia hylonoma as Antiadipogenic Agents” (J Nat Prod, 2023).
Active and inactive are the calls of the source. No cut-off for these calls is given here.

What was measured:
3T3-L1 [1] = test: Anti-adipogenic efficacy in mouse 3T3-L1 cells assessed as inhibition of TG level by Oil Red O staining based light microscopic analysis; format: functional, cell-based
3T3-L1 [2] = test: Anti-adipogenic efficacy in mouse 3T3-L1 cells assessed as reduction in FAS protein level by Western blot analysis; format: functional, cell-based; details: dose 0.1-10 µM
3T3-L1 [3] = test: Anti-adipogenic efficacy in mouse 3T3-L1 cells assessed as increase in p-AMPK level at 0.1 to 10 uM by Western blot analysis; format: functional, cell-based; details: dose 0.1-10 µM
3T3-L1 [4] = test: Anti-adipogenic efficacy in mouse 3T3-L1 cells assessed as reduction in FAS mRNA level by RT-qPCR analysis; format: functional, cell-based; details: dose 0.1-10 µM
3T3-L1 [5] = test: Anti-adipogenic efficacy in mouse 3T3-L1 cells assessed as reduction in PPARgamma mRNA level by RT-qPCR analysis; format: functional, cell-based; details: dose 0.1-10 µM
3T3-L1 [6] = test: Anti-adipogenic efficacy in mouse 3T3-L1 cells assessed as reduction in C/EBPbeta protein level by Western blot analysis; format: functional, cell-based; details: dose 0.1-10 µM
3T3-L1 [7] = test: Anti-adipogenic efficacy in mouse 3T3-L1 cells assessed as increase in p-ACC level at 0.1 to 10 uM by Western blot analysis; format: functional, cell-based; details: dose 0.1-10 µM
3T3-L1 [8] = test: Anti-adipogenic efficacy in mouse 3T3-L1 cells assessed as reduction in PPARgamma protein level by Western blot analysis; format: functional, cell-based; details: dose 0.1-10 µM
3T3-L1 [9] = test: Cytotoxicity against mouse 3T3-L1 cells assessed as reduction in cell viability at 20 uM by CCK-8 assay; format: toxicity, cell-based; details: 3t3-l1, 20 µM
3T3-L1 [10] = test: Anti-adipogenic efficacy in mouse 3T3-L1 cells assessed as inhibition of TG level at 1 uM by Oil Red O staining based light microscopy analysis; format: functional, cell-based
3T3-L1 [11] = test: Anti-adipogenic efficacy in mouse 3T3-L1 cells assessed as reduction in C/EBPbeta mRNA level by RT-qPCR analysis; format: functional, cell-based; details: dose 0.1-10 µM
3T3-L1 [12] = test: Anti-adipogenic efficacy in mouse 3T3-L1 cells assessed as reduction in SCD-1 mRNA level by RT-qPCR analysis; format: functional, cell-based; details: dose 0.1-10 µM
3T3-L1 [13] = test: Anti-adipogenic efficacy in mouse 3T3-L1 cells assessed as reduction in SCD-1 protein level by Western blot analysis; format: functional, cell-based; details: dose 0.1-10 µM

Structure (SMILES): C=C1C[C@]23O[C@@](O)([C@@]4(O)C[C@H](C)[C@H](OC(=O)c5ccccc5)[C@@H]4[C@H]1OC(=O)c1ccccc1)[C@]1(C)O[C@](C)(CC2=O)C[C@H]31
- EC50 (3T3-L1 [1]): 360 nM

Structure (SMILES): C=C1C[C@]2(O)C(=O)C(C)(C)C[C@H]2C2=CC(=O)[C@]3(C[C@H](C)[C@H](OC(=O)c4ccccc4)[C@@H]3[C@H]1OC(=O)c1ccccc1)O2
- EC50 (3T3-L1 [1]): 200 nM

Structure (SMILES): CC1=C[C@@H]2C(=O)[C@]3(C=C(C)[C@H](OC(=O)C(C)C(C)C)[C@@]3(O)[C@@H]1O)[C@H](C)C[C@@H]1[C@H]2C1(C)C (stereo not given in full)
- Activity (3T3-L1 [2]): Dose-Dependent Effect
- Activity (3T3-L1 [3]): Active
- Activity (3T3-L1 [4]): Dose-Dependent Effect
- Activity (3T3-L1 [5]): Dose-Dependent Effect
- Activity (3T3-L1 [6]): Dose-Dependent Effect
- Activity (3T3-L1 [7]): Active
- Activity (3T3-L1 [8]): Dose-Dependent Effect
- Activity (3T3-L1 [9]): Non-Toxic
- Activity (3T3-L1 [10]): Active
- Activity (3T3-L1 [11]): Dose-Dependent Effect
- Activity (3T3-L1 [12]): Dose-Dependent Effect
- Activity (3T3-L1 [13]): Dose-Dependent Effect
- EC50 (3T3-L1 [1]): 600 nM
